Drawing on US20230115274A1, “COMPOUNDS AND COMPOSITIONS FOR TREATING CONDITIONS ASSOCIATED WITH STING ACTIVITY” (IFM Due, Inc., priority 2019, published 2023), this text covers EC50 for 24 compounds.

The target of one assay is T1, hSTING (Homo sapiens, UniProt Q86WV6, G230A/H232R/R293Q/R71H).
T1 construct: host or cells: THP1-Dual KO-IFNAR2 cells
T1 sequence (Q86WV6 whole entry R71H/G230A/H232R/R293Q): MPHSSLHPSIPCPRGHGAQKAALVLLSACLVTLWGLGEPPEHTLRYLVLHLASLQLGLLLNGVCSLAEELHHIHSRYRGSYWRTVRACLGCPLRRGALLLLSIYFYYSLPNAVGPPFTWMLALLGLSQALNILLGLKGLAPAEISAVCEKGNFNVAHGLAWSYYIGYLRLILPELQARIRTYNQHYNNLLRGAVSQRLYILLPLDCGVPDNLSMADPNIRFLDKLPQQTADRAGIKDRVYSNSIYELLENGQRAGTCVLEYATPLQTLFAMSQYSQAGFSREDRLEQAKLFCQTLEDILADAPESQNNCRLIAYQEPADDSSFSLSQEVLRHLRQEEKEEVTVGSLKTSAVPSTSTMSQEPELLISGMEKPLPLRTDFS
As to the kind of experiment: STING reporter assay (luciferase) in THP1-Dual KO-IFNAR2 cells stimulated with 2′3′cGAMP. The class given is cell-based. The conditions noted are these: 2′3′cGAMP 15 μM, 24 h, class symbols. The gist of the method:
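THP1-Dual KO-IFNAR2 cells (2×10E6 cells/mL) were treated with compound at 0.0017-100 μM final plus 15 μM final 2′3′cGAMP delivered with Lipofectamine 2000. After 24 h at 37° C., secreted luciferase in supernatant was read by QUANTI-Luc luminescence and EC50 values were fitted.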
A general note: In a reporter assay the amount or activity of a reporter protein is the signal.
On to `O=C(Nc1ccc(C2CC(F)(F)C2)c(Cl)c1)Nc1c[nH]c2cccnc12` [Compound 219, 1-(3-chloro-4-(3,3-difluorocyclobutyl)phenyl)-3-(1H-pyrrolo[3,2-b]pyridin-3-yl)urea], for which the EC50 (usually the concentration giving half of the maximal effect) was in the range of 0.2 to 1 µM.
The same measure, in the same setting: the value for `O=C(Nc1cnc(N2CCC3(CC2)CC3)c(Cl)c1)Nc1c[nH]c2cccnc12` [Compound 221, 1-(5-chloro-6-(6-azaspiro[2.5]octan-6-yl)pyridin-3-yl)-3-(1H-pyrrolo[3,2-b]pyridin-3-yl)urea] was 0.2 to 1 µM; that for `O=C(Nc1cnc(C2CCN(CC(F)(F)F)CC2)c(Cl)c1)Nc1c[nH]c2cccnc12` [Compound 222, 1-(5-chloro-6-(1-(2,2,2-trifluoroethyl)piperidin-4-yl)pyridin-3-yl)-3-(1H-pyrrolo[3,2-b]pyridin-3-yl)urea] was 0.2 to 1 µM; that for `O=C(Nc1cnc(N2CC3(C2)CC(F)(F)C3)c(Cl)c1)Nc1c[nH]c2cccnc12` [Compound 223, 1-(5-chloro-6-(6,6-difluoro-2-azaspiro[3.3]heptan-2-yl)pyridin-3-yl)-3-(1H-pyrrolo[3,2-b]pyridin-3-yl)urea] was 0.2 to 1 µM.
The compound `O=C(Nc1cnc(N2CC3(CN(CC(F)(F)F)C3)C2)c(Cl)c1)Nc1c[nH]c2cccnc12` [Compound 224, 1-(5-chloro-6-(6-(2,2,2-trifluoroethyl)-2,6-diazaspiro[3.3]heptan-2-yl)pyridin-3-yl)-3-(1H-pyrrolo[3,2-b]pyridin-3-yl)urea] yielded an EC50 of 5 to 100 µM.
Same read-out and setting: with `O=C(Nc1cnc(N2CCN(CCC(F)(F)F)CC2)c(Cl)c1)Nc1c[nH]c2cccnc12` [Compound 225, 1-(5-chloro-6-(4-(3,3,3-trifluoropropyl)piperazin-1-yl)pyridin-3-yl)-3-(1H-pyrrolo[3,2-b]pyridin-3-yl)urea] the figure was 1 to 5 µM; with `O=C(Nc1cnc(N2CCC3(CC2)CC(F)(F)C3)c(Cl)c1)Nc1c[nH]c2cccnc12` [Compound 226, 1-(5-chloro-6-(2,2-difluoro-7-azaspiro[3.5]nonan-7-yl)pyridin-3-yl)-3-(1H-pyrrolo[3,2-b]pyridin-3-yl)urea], 0.2 to 1 µM; with `O=C(Nc1cnc(N2CCN(CC(F)(F)F)CC2)c(Cl)c1)Nc1c[nH]c2cccnc12` [Compound 227, 1-(5-chloro-6-(4-(2,2,2-trifluoroethyl)piperazin-1-yl)pyridin-3-yl)-3-(1H-pyrrolo[3,2-b]pyridin-3-yl)urea], 0.2 to 1 µM.
In turn, `COc1ccc2[nH]cc(NC(=O)Nc3cnc(C4CCC(F)(F)CC4)c(F)c3)c2n1` [Compound 229, 1-(6-(4,4-difluorocyclohexyl)-5-fluoropyridin-3-yl)-3-(5-methoxy-1H-pyrrolo[3,2-b]pyridin-3-yl)urea] displayed an EC50 of 0.2 to 1 µM.
Compound `O=C(Nc1cnc(N2CCC(F)(F)CC2)c(F)c1)Nc1c[nH]c2cccnc12` [Compound 230, 1-(6-(4,4-difluoropiperidin-1-yl)-5-fluoropyridin-3-yl)-3-(1H-pyrrolo[3,2-b]pyridin-3-yl)urea] displayed an EC50 of 0.2 to 1 µM.
Consider `COc1ccc2[nH]cc(NC(=O)Nc3cnc(N4CC(F)(F)C4)c(Cl)c3)c2n1` [Compound 231, 1-(5-chloro-6-(3,3-difluoroazetidin-1-yl)pyridin-3-yl)-3-(5-methoxy-1H-pyrrolo[3,2-b]pyridin-3-yl)urea], for which the EC50 was in the range of 0.2 to 1 µM.
On the same count and under the same terms, the value for `COc1ccc2[nH]cc(NC(=O)Nc3cnc(N4CC(F)(F)C4)c(F)c3)c2n1` [Compound 232, 1-(6-(3,3-difluoroazetidin-1-yl)-5-fluoropyridin-3-yl)-3-(5-methoxy-1H-pyrrolo[3,2-b]pyridin-3-yl)urea] was 1 to 5 µM; that for `COc1ccc2[nH]cc(NC(=O)Nc3cnc(C4CCC(F)(F)CC4)c(Cl)c3)c2n1` [Compound 233, 1-(5-chloro-6-(4,4-difluorocyclohexyl)pyridin-3-yl)-3-(5-methoxy-1H-pyrrolo[3,2-b]pyridin-3-yl)urea] was 0.04 to 0.2 µM.
In turn, `O=C(Nc1cnc(C2CCC(F)(F)CC2)c(F)c1)Nc1c[nH]c2cccnc12` [Compound 234, 1-(6-(4,4-difluorocyclohexyl)-5-fluoropyridin-3-yl)-3-(1H-pyrrolo[3,2-b]pyridin-3-yl)urea] displayed an EC50 of 0.2 to 1 µM.
`O=C(Nc1cc(Cl)c(N2CCC(F)(F)CC2)cn1)Nc1c[nH]c2cccnc12` [Compound 235, 1-(4-chloro-5-(4,4-difluoropiperidin-1-yl)pyridin-2-yl)-3-(1H-pyrrolo[3,2-b]pyridin-3-yl)urea] had an EC50 of 1 to 5 µM.
On the same count and under the same terms, with `O=C(Nc1cnc(N2CCC(F)(F)CC2)c(Cl)c1)Nc1c[nH]c2ccc(Br)nc12` [Compound 236, 1-(5-bromo-1H-pyrrolo[3,2-b]pyridin-3-yl)-3-(5-chloro-6-(4,4-difluoropiperidin-1-yl)pyridin-3-yl)urea] the figure was 0.04 to 0.2 µM; with `N#Cc1cc(NC(=O)Nc2c[nH]c3cccnc23)cnc1C1CCC(F)(F)CC1` [Compound 237, 1-(5-cyano-6-(4,4-difluorocyclohexyl)pyridin-3-yl)-3-(1H-pyrrolo[3,2-b]pyridin-3-yl)urea], 1 to 5 µM; with `COc1ccc2[nH]cc(NC(=O)Nc3ccc(C4CC(F)(F)C4)c(F)c3)c2n1` [Compound 238, 1-(4-(3,3-difluorocyclobutyl)-3-fluorophenyl)-3-(5-methoxy-1H-pyrrolo[3,2-b]pyridin-3-yl)urea], 0.2 to 1 µM.
Still for that read-out and setting: the value for `O=C(Nc1ccc(C2CC(F)(F)C2)c(F)c1)Nc1c[nH]c2cccnc12` [Compound 239, 1-(4-(3,3-difluorocyclobutyl)-3-fluorophenyl)-3-(1H-pyrrolo[3,2-b]pyridin-3-yl)urea] was 0.2 to 1 µM; that for `O=C(Nc1cnc(N2CCC(F)(F)CC2)c(Cl)c1)Nc1c[nH]c2cc(Br)cnc12` [Compound 240, 1-(6-bromo-1H-pyrrolo[3,2-b]pyridin-3-yl)-3-(5-chloro-6-(4,4-difluoropiperidin-1-yl)pyridin-3-yl)urea] was 5 to 100 µM; that for `CC1(C)CN(c2ncc(NC(=O)Nc3c[nH]c4cccnc34)cc2Cl)CCO1` [Compound 241, 1-(5-chloro-6-(2,2-dimethylmorpholino)pyridin-3-yl)-3-(1H-pyrrolo[3,2-b]pyridin-3-yl)urea] was 5 to 100 µM.
Still for that read-out and setting: with `COc1ccc2[nH]cc(NC(=O)Nc3cnc(C4CC(F)(F)C4)c(Cl)c3)c2n1` [Compound 243, 1-(5-chloro-6-(3,3-difluorocyclobutyl)pyridin-3-yl)-3-(5-methoxy-1H-pyrrolo[3,2-b]pyridin-3-yl)urea] the figure was 0.2 to 1 µM.

The assay is the same for the next values; noted with them: 2′3′cGAMP 15 μM, 24 h, numeric bounds.
`O=C(Nc1ccc(N2CCC(F)(F)CC2)nc1)Nc1c[nH]c2cccnc12` [Compound 220, 1-(6-(4,4-difluoropiperidin-1-yl)pyridin-3-yl)-3-(1H-pyrrolo[3,2-b]pyridin-3-yl)urea] returned an EC50 of more than 30 µM.
Same read-out and setting: with `O=C(Nc1cnc(N2CC(F)(F)C2)c(Cl)c1)Nc1c[nH]c2cccnc12` [Compound 242, 1-(5-chloro-6-(3,3-difluoroazetidin-1-yl)pyridin-3-yl)-3-(1H-pyrrolo[3,2-b]pyridin-3-yl)urea] the figure was more than 10 µM.
